Tests used:
Assay type in all cases: biochemical
[1] = target: JAK3 (Homo sapiens (Human), UniProt P52333); assay: In vitro JAK kinase assay (TR-FRET), JAK3; settings: catalytic domain aa 795-1124, GST-fusion; ATP 0.6 μM; peptide 140 nM; 30 minutes at room temperature
Description: (§1) Compounds were screened for their ability to inhibit JAK1, JAK2 and JAK3 using the assays as indicated below. […] The enzymatic activity was assayed using as substrate a biotinylated peptide, poly (GT)-Biotin (CisBio). […] The degree of phosphorylation was detected by TR-FRET (time-resolved fluorescence energy transfer). […] The enzymatic reactions took place for 30 minutes at room temperature. […] Incubate for 3 h and read on Victor 2V spectrofluorometer (Perkin Elmer) set to read fluorescence resonance energy transfer.

[2] = target: JAK2 (Homo sapiens (Human), UniProt O60674); assay: In vitro JAK kinase assay (TR-FRET), JAK2; settings: catalytic domain aa 826-1132, GST-fusion; ATP 0.2 μM; peptide 20 nM; 30 minutes at room temperature
Description: as §1

[3] = target: JAK1 (Homo sapiens (Human), UniProt P23458); assay: In vitro JAK kinase assay (TR-FRET), JAK1; settings: catalytic domain aa 850-1154, GST-fusion; ATP 3 μM; peptide 60 nM; 30 minutes at room temperature
Description: as §1

Chain of JAK2 (O60674 826-1132): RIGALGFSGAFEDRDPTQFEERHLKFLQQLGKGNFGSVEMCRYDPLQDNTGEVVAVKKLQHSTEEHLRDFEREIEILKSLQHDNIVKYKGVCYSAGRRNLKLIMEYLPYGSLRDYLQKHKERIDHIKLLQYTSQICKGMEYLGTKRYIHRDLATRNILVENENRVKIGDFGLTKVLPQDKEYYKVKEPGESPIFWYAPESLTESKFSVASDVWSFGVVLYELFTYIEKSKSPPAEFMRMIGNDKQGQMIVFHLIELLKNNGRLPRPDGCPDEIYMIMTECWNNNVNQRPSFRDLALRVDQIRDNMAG
Chain of JAK3 (P52333 795-1124): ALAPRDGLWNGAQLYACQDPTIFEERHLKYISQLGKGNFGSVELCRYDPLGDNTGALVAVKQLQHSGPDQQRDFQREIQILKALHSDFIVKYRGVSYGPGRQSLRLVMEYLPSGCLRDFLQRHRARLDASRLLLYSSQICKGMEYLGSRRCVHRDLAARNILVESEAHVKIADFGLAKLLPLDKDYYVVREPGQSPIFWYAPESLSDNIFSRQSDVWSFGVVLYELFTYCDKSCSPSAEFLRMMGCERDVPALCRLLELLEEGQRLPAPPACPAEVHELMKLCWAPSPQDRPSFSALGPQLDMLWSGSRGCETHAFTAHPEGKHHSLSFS
Chain of JAK1 (P23458 850-1154): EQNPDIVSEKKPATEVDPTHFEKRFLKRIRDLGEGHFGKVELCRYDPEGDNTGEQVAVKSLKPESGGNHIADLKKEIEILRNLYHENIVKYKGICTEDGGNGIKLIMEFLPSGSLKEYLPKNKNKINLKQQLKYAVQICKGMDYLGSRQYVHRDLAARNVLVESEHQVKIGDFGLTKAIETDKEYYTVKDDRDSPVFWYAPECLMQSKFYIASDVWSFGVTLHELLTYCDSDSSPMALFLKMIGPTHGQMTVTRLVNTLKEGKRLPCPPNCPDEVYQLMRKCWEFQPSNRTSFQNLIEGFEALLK

| Compound | IC50 [1] | IC50 [2] | IC50 [3] |
| --- | --- | --- | --- |
| O=C(CO)N1CCC[C@@H](Oc2nc(-c3cnn4ccccc34)nc(NCCO)c2F)C1 [Example 69, 2-[(3R)-3-({5-Fluoro-6-[(2-hydroxyethyl)amino]-2-pyrazolo[1,5-a]pyridin-3-ylpyrimidin-4-yl}oxy)piperidin-1-yl]-2-oxoethanol] | 11 nM | 3 nM | 37 nM |
| COc1nc(-c2cnn3ccccc23)nc(N[C@@H]2CCCN(c3cnc(C#N)cn3)C2)c1F [Example 56, 5-{(3R)-3-[(5-fluoro-6-methoxy-2-pyrazolo[1,5-a]pyridin-3-ylpyrimidin-4-yl)amino]piperidin-1-yl}pyrazine-2-carbonitrile] | 8 nM | 7 nM | 43 nM |
| N#CCC(=O)N1CCC[C@@H](Nc2nc(-c3cnn4ccccc34)nc(-c3cncc(CO)c3)c2F)C1 [Example 89, 3-[(3R)-3-({5-Fluoro-6-[5-(hydroxymethyl)pyridin-3-yl]-2-pyrazolo[1,5-a]pyridin-3-ylpyrimidin-4-yl}amino)piperidin-1-yl]-3-oxopropanenitrile] | 3 nM | 1 nM | 5 nM |
| CCOC(=O)c1nc(-c2cnn3ccccc23)nc(N[C@@H]2CCCN(C(=O)CO)C2)c1F [Example 46, Ethyl 5-fluoro-6-{[(3R)-1-glycoloylpiperidin-3-yl]amino}-2-pyrazolo[1,5-a]pyridin-3-ylpyrimidine-4-carboxylate] | 4 nM | 3 nM | 10 nM |
| N#CCC(=O)N1CCC[C@@H](Nc2nc(-c3cnn4ccccc34)nc(-c3ccnc(CO)c3)c2F)C1 [Example 78, 3-[(3R)-3-({5-Fluoro-6-[2-(hydroxymethyl)pyridin-4-yl]-2-pyrazolo[1,5-a]pyridin-3-ylpyrimidin-4-yl}amino)piperidin-1-yl]-3-oxopropanenitrile] | 1 nM | 0.5 nM | 2 nM |
| CN1CCN(c2nc(-c3cnn4ccccc34)nc(O[C@@H]3CCCN(C(=O)CO)C3)c2F)CC1 [Example 67, 2-((3R)-3-{[5-Fluoro-6-(4-methylpiperazin-1-yl)-2-pyrazolo[1,5-a]pyridin-3-ylpyrimidin-4-yl]oxy}piperidin-1-yl)-2-oxoethanol] | 23 nM | 5 nM | 139 nM |
| Cc1c(N[C@@H]2CCCN(C(=O)CO)C2)nc(-c2cnn3ccccc23)nc1N1CCOCC1 [Example 26, 2-{(3R)-3-[(5-Methyl-6-morpholin-4-yl-2-pyrazolo[1,5-a]pyridin-3-ylpyrimidin-4-yl)amino]piperidin-1-yl}-2-oxoethanol] | 30 nM | 4 nM | 26 nM |
| O=C(CO)N1CCC[C@@H](Nc2nc(-c3cnn4ccccc34)nc(O)c2F)C1 [Example 43, 5-Fluoro-6-{[(3R)-1-glycoloylpiperidin-3-yl]amino}-2-pyrazolo[1,5-a]pyridin-3-ylpyrimidin-4-ol] | 1 nM | 0.7 nM | 4 nM |
| COCCOc1cc(N[C@@H]2CCCN(C(=O)CC#N)C2)nc(-c2cnn3ccccc23)n1 [Example 97, 3-((3R)-3-{[6-(2-Methoxyethoxy)-2-pyrazolo[1,5-a]pyridin-3-ylpyrimidin-4-yl]amino}piperidin-1-yl)-3-oxopropanenitrile] | 1 nM | 1 nM | 2 nM |
| Cc1cc(-c2nc(-c3cnn4ccccc34)nc(N[C@@H]3CCCN(C(=O)CO)C3)c2F)cc(C)n1 [Example 86, 2-((3R)-3-{[6-(2,6-Dimethylpyridin-4-yl)-5-fluoro-2-pyrazolo[1,5-a]pyridin-3-ylpyrimidin-4-yl]amino}piperidin-1-yl)-2-oxoethanol] | 1 nM | 3 nM | 1 nM |
| CN(C)c1ccc(-c2nc(-c3cnn4ccccc34)nc(N[C@@H]3CCCN(C(=O)CO)C3)c2F)cn1 [Example 81, 2-[(3R)-3-({6-[6-(Dimethylamino)pyridin-3-yl]-5-fluoro-2-pyrazolo[1,5-a]pyridin-3-ylpyrimidin-4-yl}amino)piperidin-1-yl]-2-oxoethanol] | 2 nM | 1 nM | 3 nM |
| O=C(CO)N1CCC[C@@H](Nc2nc(-c3cnn4ccccc34)nc(-c3ccncc3)c2F)C1 [Example 80, 2-{(3R)-3-[(5-Fluoro-2-pyrazolo[1,5-a]pyridin-3-yl-6-pyridin-4-ylpyrimidin-4-yl)amino]piperidin-1-yl}-2-oxoethanol] | 4 nM | 1 nM | 2 nM |
| COC[C@H](C)Oc1nc(-c2cnn3ccccc23)nc(N[C@@H]2CCCN(C(=O)CO)C2)c1F [Example 58, 2-[(3R)-3-({5-Fluoro-6-[(1S)-2-methoxy-1-methylethoxy]-2-pyrazolo[1,5-a]pyridin-3-ylpyrimidin-4-yl}amino)piperidin-1-yl]-2-oxoethanol] | 7 nM | 2 nM | 66 nM |
| O=C(CO)N1CCC[C@@H](Oc2nc(-c3cnn4ccccc34)nc(N3CCOCC3)c2F)C1 [Example 52, 2-{(3R)-3-[(5-Fluoro-6-morpholin-4-yl-2-pyrazolo[1,5-a]pyridin-3-ylpyrimidin-4-yl)oxy]piperidin-1-yl}-2-oxoethanol] | 11 nM | 1 nM | 11 nM |
| Cc1ccc(-c2cc(N[C@@H]3CCCN(C(=O)CC#N)C3)nc(-c3cnn4ccccc34)n2)cn1 [Example 100, 3-((3R)-3-{[6-(6-Methylpyridin-3-yl)-2-pyrazolo[1,5-a]pyridin-3-ylpyrimidin-4-yl]amino}piperidin-1-yl)-3-oxopropanenitrile] | 2 nM | 2 nM | 0.5 nM |
| (5-{(3R)-3-[(5-fluoro-6-methoxy-2-pyrazolo[1,5-a]pyridin-3-ylpyrimidin-4-yl)amino]piperidin-1-yl}pyrazin-2-yl)methanol [Example 55] | 33 nM | 12 nM | 170 nM |
| CCOC(=O)C1CCN(c2nc(-c3cnn4ccccc34)nc(N[C@@H]3CCCN(C(=O)CC#N)C3)c2F)CC1 [Example 30, Ethyl 1-(6-{[(3R)-1-(cyanoacetyl)piperidin-3-yl]amino}-5-fluoro-2-pyrazolo[1,5-a]pyridin-3-ylpyrimidin-4-yl)piperidine-4-carboxylate] | 2 nM | 0.6 nM | 4 nM |
| CCOCCOc1nc(-c2cnn3ccccc23)nc(N[C@@H]2CCCN(C(=O)CC#N)C2)c1F [Example 16, 3-((3R)-3-{[6-(2-ethoxyethoxy)-5-fluoro-2-pyrazolo[1,5-a]pyridin-3-ylpyrimidin-4-yl]amino}piperidin-1-yl)-3-oxopropanenitrile] | 1 nM | 0.7 nM | 4 nM |
| O=C(CO)N1CCC[C@@H](Nc2nc(-c3cnn4ccccc34)nc(-c3ccnc(CO)c3)c2F)C1 [Example 37, 2-[(3R)-3-({5-Fluoro-6-[2-(hydroxymethyl)pyridin-4-yl]-2-pyrazolo[1,5-a]pyridin-3-ylpyrimidin-4-yl}amino)piperidin-1-yl]-2-oxoethanol] | 7 nM | 1 nM | 2 nM |
| CC(C)OC(=O)c1nc(-c2cnn3ccccc23)nc(N[C@@H]2CCCN(C(=O)CO)C2)c1F [Example 92, Isopropyl 5-fluoro-6-{[(3R)-1-glycoloylpiperidin-3-yl]amino}-2-pyrazolo[1,5-a]pyridin-3-ylpyrimidine-4-carboxylate] | 4 nM | 1 nM | 12 nM |
